Tests used:
[1] = test system: total serum N-glycome; experiment: Dietary supplementation in patients: total serum N-glycome by capillary electrophoresis; assay type: in vivo, human; details: patients with galactose supplementation
From the text: • Figure 1. Glycoprotein Biosynthesis and Congenital Disorders of Glycosylation. For the N-glycosylation of proteins, a glycan precursor is assembled from monosaccharide units on an anchoring isoprenoid alcohol, dolichol, in the membrane of the endoplasmic reticulum. Each glycan precursor is then transferred en bloc to a specific asparagine residue in the nascent peptide chain of a protein being synthesized by a ribosome and entering the endoplasmic reticulum. Because transferrin (brown line) is abundant in blood, it is used as an indicator of the efficiency of the glycosylation system. Transferrin has two glycosylation sites. The protein is transported to the Golgi apparatus, and the glycans are modified in multiple steps. Each fully modified glycan is terminated with two negatively charged sialic acid residues. Thus, the transferrin molecule carries a total of four sialic acid residues. If a genetic defect impairs synthesis of the precursor glycan in the endoplasmic reticulum, one or both glycosylation sites of transferrin may remain unoccupied (white arrow). Such defects are classified as congenital disorders of glycosylation type I (CDG-I). […] CDG-I defects are easily identified owing to the occurrence of transferrin isoforms with two or no sialic acid residues detected by means of IEF. […]

[2] = Determination of galactose kinetics in whole blood after oral galactose; assay type: in vivo, human; details: healthy volunteer, oral 0.3 g of galactose per kilogram of body weight in 250 ml water
Method: (§1) Galactose powder was supplied by Falcento. Galactose levels in whole blood were determined in a healthy volunteer after the oral consumption of 250 ml of water in which 0.3 g of galactose per kilogram of body weight had been dissolved. Measurements of galactose levels in blood were made by means of spectrophotometry at intervals of 10 minutes during the first hour and at intervals of 30 minutes for an additional 3 hours. Lactose or galactose supplementation was administered as an aqueous solution at a dose of 0.5 to 1.0 g per kilogram per day, divided into three to six daily doses (on the basis of patient preference).
Enzymatic determination of galactose levels in whole blood was performed using exogenous galactose dehydrogenase (galactose + NAD^+ → galactono-1,4-lactone + NADH + H^+). Galactose levels were determined in a healthy control after oral consumption of 0.3 g galactose (falcento AG, Kreuzlingen, Switzerland) per kilogram body weight dissolved in 250 ml water. Measurements of galactose levels were made at intervals of 10 minutes during the first hour and at intervals of 30 minutes for additional three hours.
3000 µl of galactose buffer reagent (Instruchemie, Delfzijl, Netherlands), 100 µl of galactose NAD reagent (Instruchemie) and 200 µl of a diluted calibrator (Instruchemie) were mixed and the absorbance against distilled water was read at a temperature of 25 °C and a wavelength of 340 nm (optical density 1).
500 µl of each whole blood sample were added to 1000 µl perchloric acid (0.33 mol/l) for deproteinization and then centrifuged. 200 µl of the supernatant were added to 3000 µl galactose buffer reagent, 100 µl galactose NAD reagent and absorbance was read (optical density 1). After supplementation of 20 µl galactose start reagent and incubation at 25 °C for 15 min, the optical density 2 was measured in both, the calibrator and blood samples.
For manual calculation of the galactose concentration the following formula was used: galactose(mmol/l) = (ΔO.D.controlorsample)/(ΔO.D.calibrator) × concentrationofcalibrator [formula]

[3] = test system: PGM1-deficient fibroblasts; experiment: Assay for cellular glycosylation efficiency using modified GFP (Glyc-ER-GFP); assay type: cell-based, human; details: fibroblasts from patients, galactose alone added to culture medium
Method: (§2) Analysis of transferrin glycosylation was performed on serum samples with the use of isoelectric focusing, (3,4) sodium dodecyl sulfate-polyacrylamide-gel electrophoresis (SDS-PAGE), (3) or liquid chromatography-mass spectrometry (9) (Fig. 3, and the Examples II). […] Green fluorescent protein engineered for retention in the endoplasmic reticulum was modified to contain an N-glycosylation site that, when glycosylated, causes loss of fluorescence (Glyc-ER-GFP). (11) Glyc-ER-GFP was transfected into patient fibroblasts in culture, and fluorescence was measured by means of quantitative microscopy (see the Examples II).
Glycosylation efficiency was measured using Glyc-ER-GFP constructs as described.^11 In brief, cells were seeded in a 96 wells-plate at 40% confluence. 24h later, they were incubated in medium without or with addition of supplements (e.g. 0-1 mM galactose +/-100µM uridine) for 2 days with medium replacement every day. Cells were then transfected by the Glyc-ER-GFP and maintained in the same culture media for two more days. Cells were fixed using 4% paraformaldehyde/4% sucrose and stained by Hoechst 33342 (Thermo scientific). Plates were analyzed using a high-content microscope, IN Cell 1000 (GE Healthcare), and data were analyzed with the CytoSeer software (Vala Sciences) using a protein mask.

[4] = test system: skin fibroblasts; experiment: Evaluation of glycogen by electron microscopy in fibroblasts; assay type: cell-based, human; details: 5.5 mM sugar in medium, 50 h
Method: For electron microscopy, skin fibroblasts of patients and controls were cultured to a confluence of 50 to 70% in M199 medium (Life Technologies) supplemented with 10% fetal calf serum and 1% penicillin/streptomycin in a humidified atmosphere containing 5% CO2 at 37°C. Cells were switched to a medium consisting of DMEM supplemented with 4mM L-glutamine (Invitrogen), 10% dialyzed FCS (Gibco), 1mM uridine (Calbiochem), and either 5.5 mM D-glucose (Sigma), or 5.5 mM D-Galactose (Merck). After 50 h of incubation, cells were centrifuged for 10 min at 1000rpm and fixed by gentle addition of 2% glutaraldehyde buffered with 0.1 M sodium cacodylate pH7.4 after removing the medium. After at least 4h fixation, the pellets were very carefully taken off and post-fixed in 1% osmium tetroxide in Palade buffer pH 7.4 with 1% potassium hexacyanoferrate(III)-trihydrate, and after dehydration in ethanol and propylene oxide, embedded in Epon for electron microscopy. Semithin 1µm thick transverse sections were stained with 1% Toluidine Blue. Ultrathin sections were stained with uranyl acetate and lead citrate and examined on a JEOL 1200 EX\II. […] Cells with small darkly staining aggregates of glycogen were counted as positive. Fibroblasts were prepared for evaluation of glycogen by electron microscopy as described above. The presence of glycogen in control and patient fibroblasts cultured in the presence of either glucose or galactose was assessed by electron microscopy. Cells (of 115-160 total) with small darkly staining aggregates of glycogen were counted as positive. Aggregates are typically more common in glycogen storage diseases (picture for hepatocytes s. Fig. 7, panel C, D).

[5] = Dietary supplementation in patients: hormones and clinical course; assay type: in vivo, human; details: for levels of luteinizing hormone, increased by a factor of: initially 2.5th percentile
Method: as §1

[6] = test system: transferrin; experiment: Dietary supplementation in patients: transferrin glycosylation; assay type: in vivo, human; details: for transferrin glycosylation by mass spectrometry: six patients, 0.5 to 1.0 g per kilogram per day, within 2 weeks
Method: as §2, §1
For high-resolution mass spectrometry of transferrin (Fig. 3), a 5 µl serum sample was incubated with anti-transferrin beads as described.^8 The eluate was analyzed on a microfluidic 6540 LC-chip-QTOF instrument (Agilent Technologies) using a C8 protein chip. Data analysis was performed using Agilent Mass Hunter Qualitative Analysis Software B.04.00. The Agilent BioConfirm Software was used to deconvolute the charge distribution of raw data to reconstructed mass data. For confirmation of the structural annotations, samples were processed for analysis of tryptic transferrin peptides by MALDI-TOF as described^9 (results not shown).

[7] = Patients 2 and 6, after initiation of galactose treatment

Row | plasma concentration of galactose, maximum [2] | time after which galactose decreased to baseline levels [2] | time of maximum galactose concentration [2] | SMILES | glycosylation of the total serum N-glycome [1] | glycosylation of Glyc-ER-GFP [3] | % of cells with glycogen aggregates ([4]; Control 1 fibroblasts) | % of cells with glycogen aggregates ([4]; Control 2 fibroblasts) | % of cells with glycogen aggregates ([4]; PGM1-6 patient fibroblasts) | % of cells with glycogen aggregates ([4]; PGM1-7 patient fibroblasts) | levels of luteinizing hormone, increased by a factor of ([5]; Patient 2, after initiation of galactose supplementation) | levels of luteinizing hormone, increased by a factor of ([5]; Patient 6, after initiation of galactose supplementation) | hypogonadotropic hypogonadism ([5]; Patients 2 and 6, after initiation of galactose supplementation) | cardiac function [5, 7] | episodes of rhabdomyolysis [5, 7] | ultrasonography of the liver ([5]; Patients 2 and 6, every 3 months during galactose supplementation) | levels of follicle-stimulating hormone (FSH) ([5]; Patients 2 and 6, galactose supplementation) | tetrasialo-transferrin ([6]; Patient 1.1, daily 0.5 g per kg b.w. in 3 portions, doubled after one week, HPLC, within a few weeks, 50 before) | transferrin glycosylation by mass spectrometry [6]
1 | 700 µM | 2 h | 50 min | O=C[C@H](O)[C@@H](O)[C@@H](O)[C@H](O)CO [galactose] | substantial improvement | substantially enhanced | 2% | 4% | <1% | <1% | 5 | 10 | resolved within a few weeks | remained stable | no further episodes | no increase in echogenicity and no signs of cholestasis | normalized | 70% | improved substantially
2 | – | – | – | OC[C@H]1O[C@@H](O[C@H]2[C@H](O)[C@@H](O)C(O)O[C@@H]2CO)[C@H](O)[C@@H](O)[C@H]1O (stereo partly shown) [lactose] | – | – | – | – | – | – | – | – | – | – | – | – | – | – | improved substantially

— patent publication EP2905621B1, “MEANS AND METHODS FOR DIAGNOSING AND TREATING CDG CAUSED BY A DEFICIENCY OF PGM1” (Westfälische Wilhelms-Universität Münster, priority 2014, dated 2015)
